Values joined by “and” are separate entries in the source; they are usually repeats but may differ in a detail not shown here. Identical values can stand only once.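 Compound exposure: 48 hours, 5 concentrations, 96-well plates. Abbreviation: GI50, concentration required for 50% inhibition of growth. Definition used: TGI = concentration required for complete inhibition of growth.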
Assays:
Assay in all cases: NCI tumour cell line growth inhibition, 48 h
[1] = tested on: BT-549 breast
[2] = tested on: HCT-116 colon
[3] = tested on: HL-60(TB) leukemia
[4] = tested on: KM12 colon
[5] = tested on: OVCAR-4 ovarian
[6] = tested on: OVCAR-8 ovarian
[7] = tested on: SF-268 CNS
[8] = tested on: SK-MEL-28 melanoma
[9] = tested on: SR leukemia
[10] = tested on: TK-10 renal

Cc1cc(C)c(C#N)c(Sc2nc(C)c([N+](=O)[O-])c(C)c2C#N)n1
GI50 [1]: 2660 nM | TGI [1]: 7.5 µM | GI50 [2]: 1940 nM | TGI [2]: 4.18 µM | GI50 [3]: 2630 nM | TGI [3]: 7.34 µM | GI50 [4]: 3980 nM | TGI [4]: 19 µM | GI50 [5]: 2.27 µM | TGI [5]: 6.64 µM | GI50 [6]: 3030 nM | TGI [6]: 10.5 µM | GI50 [7]: 3260 nM | TGI [7]: 11.8 µM | GI50 [8]: 3120 nM | TGI [8]: 12.4 µM | GI50 [9]: 2940 nM | TGI [9]: > 100 µM | GI50 [10]: 3.27 µM | TGI [10]: 8.28 µM

CCCOC(=O)c1c(C)n(C)c2scc[n+]12
GI50 [1]: 35900 nM | TGI [1]: > 100 µM | GI50 [2]: 35800 nM | TGI [2]: > 100 µM | GI50 [3]: > 100000 nM | TGI [3]: > 100 µM | GI50 [4]: 44500 nM | TGI [4]: > 100 µM | GI50 [5]: 37.1 µM | TGI [5]: > 100 µM | GI50 [6]: 49200 nM | TGI [6]: > 100 µM | GI50 [7]: 48000 nM | TGI [7]: > 100 µM | GI50 [8]: > 100000 nM | TGI [8]: > 100 µM | GI50 [9]: 64000 nM | TGI [9]: > 100 µM | GI50 [10]: > 100 µM | TGI [10]: > 100 µM

O=C(O)/C(Cc1cn[nH]n1)=N\O
TGI [1]: > 100 µM | TGI [2]: > 100 µM | TGI [3]: > 100 µM | TGI [4]: > 100 µM | TGI [5]: > 100 µM | TGI [6]: > 100 µM | TGI [7]: > 100 µM | TGI [8]: > 100 µM | TGI [9]: > 100 µM | TGI [10]: > 100 µM

COc1ccc(C(=O)c2cc(C)c(OC)c(C)c2)c(OC)c1NC(C)=O
GI50 [1]: 258 nM | TGI [1]: > 100 µM | GI50 [2]: 439 nM | TGI [2]: > 100 µM | GI50 [3]: 309 nM | TGI [3]: 1.37 µM | GI50 [4]: 153 nM | TGI [4]: > 100 µM | GI50 [5]: 7.68 µM | TGI [5]: > 100 µM | GI50 [6]: 419 nM | TGI [6]: > 100 µM | GI50 [7]: 1820 nM | TGI [7]: > 100 µM | GI50 [8]: 504 nM | TGI [8]: > 100 µM | GI50 [9]: 307 nM | TGI [9]: > 100 µM | GI50 [10]: > 100 µM | TGI [10]: > 100 µM

CNCCCNc1nc2ccccc2c2c(=O)c3cc(OC)ccc3sc12
GI50 [1]: 12800 nM | TGI [1]: 26.8 µM | GI50 [2]: 1780 nM | TGI [2]: 3.52 µM | GI50 [3]: 1950 nM | TGI [3]: 4.04 µM | GI50 [4]: 1830 nM | TGI [4]: 3.52 µM | GI50 [5]: 1.96 µM | TGI [5]: 4.03 µM | GI50 [6]: 2170 nM | TGI [6]: 5.34 µM | GI50 [7]: 1710 nM | TGI [7]: 3.42 µM | GI50 [8]: 1740 nM | TGI [8]: 3.15 µM | GI50 [9]: 3550 nM | TGI [9]: > 100 µM | GI50 [10]: 1.73 µM | TGI [10]: 3.39 µM

COc1ccc(-c2cc3c(C)nc(N)nc3n(C3CCC(OCCO)CC3)c2=O)cn1 (centres undefined)
GI50 [1]: 62.2 nM and 31.7 nM | TGI [1]: 0.666 µM and 0.359 µM | GI50 [2]: 243 nM and 222 nM | TGI [2]: > 10 µM and 18.9 µM | GI50 [3]: 34.5 nM and 94.1 nM | TGI [3]: > 10 µM and 6.38 µM | GI50 [4]: 231 nM and 209 nM | TGI [4]: 3.9 µM and 2.92 µM | GI50 [5]: 0.14 µM and 0.114 µM | TGI [5]: 2.06 µM and 0.841 µM | GI50 [6]: 141 nM and 128 nM | TGI [6]: 2.36 µM and 1.41 µM | GI50 [7]: 78.4 nM and 77.9 nM | TGI [7]: > 4.35 µM and 5.49 µM | GI50 [8]: 51.7 nM and 74 nM | TGI [8]: 0.425 µM and 0.604 µM | GI50 [9]: 257 nM and 80.5 nM | TGI [9]: > 10 µM and 1.44 µM | GI50 [10]: 0.026 µM and 0.0264 µM | TGI [10]: 0.235 µM and 0.197 µM

Nc1nc2c(C(=O)NCc3cccs3)nnn2c2cccc(Cl)c12
TGI [1]: > 100 µM | TGI [2]: > 100 µM | TGI [3]: > 100 µM | TGI [4]: > 100 µM | TGI [5]: > 100 µM | TGI [6]: > 100 µM | TGI [7]: > 100 µM | TGI [8]: > 100 µM | TGI [9]: > 100 µM | TGI [10]: > 100 µM

O=[N+]([O-])c1ccc(Cl)c(CNc2ncnc3c2ncn3C2CCCCO2)c1 (centres undefined)
TGI [1]: > 100 µM | TGI [2]: > 100 µM | TGI [3]: 73.2 µM | TGI [4]: > 100 µM | TGI [5]: > 100 µM | TGI [6]: > 100 µM | TGI [7]: > 100 µM | TGI [8]: > 100 µM | TGI [9]: 64.4 µM | TGI [10]: > 100 µM

Cc1c(C#N)cccc1[C@@H](C)Nc1nnc(C)c2cnc(N3CCOCC3)cc12
GI50 [1]: 13100 nM | TGI [1]: 48.2 µM | GI50 [2]: 32700 nM | TGI [2]: > 100 µM | GI50 [3]: 22800 nM | TGI [3]: 63.7 µM | GI50 [4]: 6610 nM | TGI [4]: > 100 µM | GI50 [5]: 13.9 µM | TGI [5]: 61.8 µM | GI50 [6]: 38500 nM | TGI [6]: > 100 µM | GI50 [7]: 14100 nM | TGI [7]: > 100 µM | GI50 [8]: 28300 nM | TGI [8]: > 100 µM | GI50 [9]: 10700 nM | TGI [9]: 92.1 µM | GI50 [10]: 14.2 µM | TGI [10]: > 100 µM

N#CC1=C(N)Oc2c(ccc3ccccc23)C1c1cc(=O)oc2ccc(Cl)cc12 (centres undefined)
GI50 [1]: 1300 nM | TGI [1]: 61.8 µM | GI50 [2]: 406 nM | TGI [2]: 23.8 µM | GI50 [3]: 275 nM | TGI [3]: 1.51 µM | GI50 [4]: 453 nM | TGI [4]: 31.4 µM | GI50 [5]: 4.31 µM | TGI [5]: > 100 µM | GI50 [6]: 1870 nM | TGI [6]: 24 µM | GI50 [7]: 2020 nM | TGI [7]: > 100 µM | GI50 [8]: 10600 nM | TGI [8]: 74.9 µM | GI50 [9]: 449 nM | TGI [9]: > 100 µM | GI50 [10]: 16.9 µM | TGI [10]: 73.1 µM

COc1cc(OC)cc(C2C3=C(COC3=O)Nc3cc(OC)ccc32)c1 (centres undefined)
GI50 [1]: 13.8 nM | TGI [1]: > 100 µM | GI50 [2]: < 10 nM | TGI [2]: 0.413 µM | GI50 [3]: < 10 nM | TGI [3]: < 0.0186 µM | GI50 [4]: < 10 nM | TGI [4]: < 0.0106 µM | GI50 [5]: < 0.01 µM | TGI [5]: 37.6 µM | GI50 [6]: < 14.3 nM | TGI [6]: > 37.5 µM | GI50 [7]: < 10.6 nM | TGI [7]: > 61.8 µM | GI50 [8]: < 10 nM | TGI [8]: > 94.2 µM | GI50 [9]: < 10 nM | GI50 [10]: 22.2 µM | TGI [10]: > 92.5 µM

C1CN(c2nnc(N3CCC3)nn2)C1
TGI [1]: > 100 µM | TGI [2]: > 100 µM | TGI [3]: > 100 µM | TGI [4]: > 100 µM | TGI [5]: > 64.6 µM | TGI [6]: > 100 µM | TGI [7]: > 100 µM | TGI [8]: > 68.3 µM | TGI [9]: > 100 µM | TGI [10]: > 100 µM

CC(=O)N1CCN(CCNC(=O)n2cc(-c3ccncc3)c(-c3cc(O)cc(Cl)c3)n2)CC1
GI50 [1]: 13000 nM | TGI [1]: 27.1 µM | GI50 [2]: 5470 nM | TGI [2]: 18.8 µM | GI50 [3]: 7790 nM | TGI [3]: 29 µM | GI50 [4]: 14000 nM | TGI [4]: 34.4 µM | GI50 [5]: 27.8 µM | TGI [5]: > 100 µM | GI50 [6]: 12200 nM | TGI [6]: > 100 µM | GI50 [7]: 14600 nM | TGI [7]: 35.2 µM | GI50 [8]: 3920 nM | TGI [8]: 16.8 µM | GI50 [9]: 4780 nM | TGI [9]: 22.5 µM | GI50 [10]: 21.8 µM | TGI [10]: 50.1 µM

— PubChem BioAssay (NCI)
